Read-outs that look alike come from different tables or passages of the source. Bounds are passed on as bounds.

What is called EC50 is the concentration at which the effect is half-maximal. By IC50 is commonly meant the concentration that inhibits the measured activity by half.

The test system of assay [1] is HCV replicon in Huh7 cells. Briefly: HCV replicon cell-based assay (FRET). Set-up: species or system HCV strain 1B. Particulars: Hepatitis C virus. In a few lines:
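Huh7 cells carrying a genotype 1b subgenomic HCV replicon (NS3–NS5B, neo) exposed to compound for 4 days at 37 °C, 0.5% DMSO final. After lysis with reagent containing 10 μM FRET peptide substrate, NS3 protease activity read kinetically at 340/490 nm; EC50 derived.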

The target of assay [2] is T1, HCV NS3/4A protease complex (J4L6S strain) (Hepatitis C virus genotype 1b, UniProt O92972, C1454S/C1711G).
T1 construct: HCV NS3/4A protease complex (amino acids 1027 to 1711); inferred from pET21b vector and Ni-NTA purification; made in house; host or cells: Escherichia coli BL21 (DE3), pET21b
T1 sequence (O92972 1658-1711, stated change not applied): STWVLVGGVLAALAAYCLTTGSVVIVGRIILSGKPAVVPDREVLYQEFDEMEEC
T1 sequence (O92972 1027-1711, looked up, stated change not applied): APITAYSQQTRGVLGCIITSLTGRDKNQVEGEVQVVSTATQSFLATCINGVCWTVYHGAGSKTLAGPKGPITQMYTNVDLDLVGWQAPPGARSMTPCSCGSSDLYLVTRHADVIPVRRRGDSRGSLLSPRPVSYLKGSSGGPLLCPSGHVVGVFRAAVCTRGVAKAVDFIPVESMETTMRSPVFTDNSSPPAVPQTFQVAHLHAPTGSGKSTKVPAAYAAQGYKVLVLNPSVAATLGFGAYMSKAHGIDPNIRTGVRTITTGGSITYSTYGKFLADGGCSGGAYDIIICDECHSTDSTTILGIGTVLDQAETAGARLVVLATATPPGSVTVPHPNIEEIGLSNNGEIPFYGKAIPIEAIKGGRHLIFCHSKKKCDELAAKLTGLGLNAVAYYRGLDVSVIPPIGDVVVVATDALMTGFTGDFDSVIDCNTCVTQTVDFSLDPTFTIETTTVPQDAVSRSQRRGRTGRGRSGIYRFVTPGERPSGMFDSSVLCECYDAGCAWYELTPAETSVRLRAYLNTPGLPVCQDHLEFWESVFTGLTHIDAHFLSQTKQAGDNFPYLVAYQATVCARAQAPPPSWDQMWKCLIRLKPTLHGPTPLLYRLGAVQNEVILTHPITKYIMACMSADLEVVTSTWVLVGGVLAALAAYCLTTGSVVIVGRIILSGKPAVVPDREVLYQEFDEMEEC
Description: Recombinant HCV NS3/4A protease complex FRET peptide assay, J4L6S strain. It counts as biochemical, HCV genotype 1b. The text has this:
Recombinant HCV NS3/4A Protease Complex FRET Peptide Assay
The purpose of this in vitro assay was to measure the inhibition of HCV NS3 protease complexes, derived from the BMS, H77C or J4l6S strains, as described below, by compounds of the present invention. This assay provides an indication of how effective compounds of the present invention would be in inhibiting HCV proteolytic activity.
Serum from an HCV-infected patient was obtained from Dr. T. Wright, San Francisco Hospital. An engineered full-length cDNA template of the HCV genome (BMS strain) was constructed from DNA fragments obtained by reverse transcription-PCR (RT-PCR) of serum RNA and using primers selected on the basis of homology between other genotype la strains. From the determination of the entire genome sequence, a genotype la was assigned to the HCV isolate according to the classification of Simmonds et al. (See P Simmonds, K A Rose, S Graham, S W Chan, F McOmish, B C Dow, E A Follett, P L Yap and H Marsden, J. Clin. Microbiol., 31(6), 1493-1503 (1993)). […]

Turning to `C=CC1C[C@]1(NC(=O)[C@@H]1C[C@@H](Oc2cc(-c3ccccc3)nc3cc(OC)ccc23)CN1C(=O)[C@@H](NC(=O)OC(C)(C)C)C(C)(C)C)C(=O)NS(=O)(=O)c1cccs1` (stereo in doubt) [Compound 1, (1-{4-(7-Methoxy-2-phenylquinolin-4-yloxy)-2-[1-(thiophene-2-sulfonylaminocarbonyl)-2-vinyl-cyclopropylcarbamoyl]-pyrrolidine-1-carbonyl}-2,2-dimethylpropyl)carbamic acid tert-butyl ester], the EC50 in assay [1] (Huh-7, 96 h, Huh7 cells, 4 days, read-out: EC50 value in the replicon assay) was 55 nM; in assay [1] (Huh-7, replicon, activity range, read-out: EC50 a, b, c (Activity Table)), < 100 nM. Moreover, in assay [2], the IC50 amounted to 1.6 nM.

Source of the values: patent publication US6869964B2, “Heterocyclicsulfonamide hepatitis C virus inhibitors” (Bristol-Myers Squibb Company, priority 2002, dated 2005).
